The values below come from a melting point compilation (Tetko et al.; mined from patent text by program, amines drawn as free bases though some values may be those of a salt).

The term melting point denotes the temperature of the solid-liquid transition.

Molecules are shown by their SMILES.

Consider `CCCN1C(=O)COc2cc(F)c(-n3nn[nH]c3=O)cc21`, for which the melting point was in the range of 145 to 148 °C. Turning to `O=C(O)c1ccccc1S(=O)(=O)Cc1c(O[C@H](Cn2ccnc2)c2ccccc2)ccc2c1CCCC2=O`, the melting point came to 230 °C. `Cc1ccc(C(=O)COC(=O)NC(C)C)cc1` registered a melting point of 130 to 133 °C.

`COc1ccc(C(=O)CCCCc2ccccc2)cc1OC` displayed a melting point of 56 to 58 °C. Regarding `Cc1ccnc(C(c2cc(F)ccc2F)S(=O)(=O)c2ccc(Cl)cc2)c1` (configuration not stated), the melting point lay within 116 to 117 °C.

As to `c1ccc(COc2cccn3ccnc23)cc1`, the melting point was 110 °C. In turn, `Cc1nc(-n2nnc(C(=O)NCc3ccccc3)c2C)sc1C(=O)NCc1ccccc1` had a melting point of 183 to 186 °C.

As for `CCOC(=O)c1nc2cc(N)ccn2n1`, the melting point was in the range of 150 to 171 °C. In turn, `COC(=O)CCc1nc(C=O)ccc1OC` had a melting point of 95 to 97 °C.

For the molecule `CCC(=O)OCC(=O)OC1C(CC)CC2C3CCC4=CC(=O)CCC4C3CCC21C` (configuration not stated), the melting point is 101 to 104 °C. On to `O=C1N=C2C(=O)SC=C2N1`, for which the melting point fell in the range of 177 to 180 °C. As for `CCCCCCOc1ccc(-c2ccccc2)cc1`, the melting point lay in the range of 61 to 62 °C. To `CCSc1cc(C#N)c(Cl)cn1` belongs 103 to 104 °C; to `CCOC(=O)c1ncn2c1CN=C(Cl)c1cc(OC)ccc1-2`, 186 °C. To `COc1ccc(/C=C/c2nc3ccccc3c(=O)o2)cc1OC` belongs 175 to 179 °C; to `COCOc1ccccc1-c1cc(-c2ccc(C(=O)O)cc2)c(C#N)c(NC(=O)c2cccs2)n1`, 205 to 206 °C. Molecule `CC(C)N(C)C(=O)C(Cc1ccc(C=O)cc1)NC(=O)OC(C)(C)C` (configuration not stated) came in with a melting point of 122 °C.

`Cn1cnnc1C(OCCO)(c1ccc(F)cc1)c1cc2c3c(c1)c(-c1cccc(Cl)c1)cc(=O)n3CC2` (configuration not stated): the melting point was 138 °C. Take `COc1ccc2c(c1)CCC1C2CCC2(C)C(NCCCCCCN)CCC12` (configuration not stated): the melting point is 93 to 94 °C. As for `Cc1cc(Cl)ccc1Cn1nc(OC(C)C)cc1CCCOc1nn(Cc2ccccc2)cc1CC(=O)O`, the melting point fell in the range of 81 to 82 °C. As for `CC(=O)NC(Cc1ccc(Cl)c(Cl)c1)C(=O)CCc1cc(C(F)(F)F)cc(C(F)(F)F)c1` (configuration not stated), the figure is 124 to 126 °C; as for `CC(=O)Nc1nc(NC(C)CCc2ccccc2)nc(C(C)(C)F)n1` (configuration not stated), 91 °C. As for `C(#Cc1ccc2[nH]ccc2c1)CCN1CCC(Cc2ccccc2)CC1`, the figure is 165 to 166 °C; as for `Cc1cc2ncnn2nc1OCCOCCN1CCC(OC(c2ccccc2)c2ccccc2)CC1`, 80 to 82 °C.

Molecule `CC(=O)Oc1ccc([N+](=O)[O-])cc1C1(OC(C)=O)C(=O)c2ccccc2C1=O` gave a melting point of 163 to 167 °C. As for `Cc1cc(-c2nc3c(C)cc(Cl)nn3c2-c2ccnc(NC(=O)c3ccc(F)cc3)c2)ccc1F`, the melting point was 235 to 236 °C. With `CCCOc1cccc(-c2ccnc(Nc3cc(OC)c(OC)c(OC)c3)n2)c1`, the melting point was 107 °C. The molecule `CC(=O)OCC(C)C1CCC2C3CC=C4CC(OC(C)=O)CCC4(C)C3CCC12C` (configuration not stated) showed a melting point of 125 to 127 °C. As for `Cc1c(NC(=O)c2ccc(OCc3ccc(C(F)(F)F)cc3)cc2)ccc2cc(CN3CCCC3)cnc12`, the melting point was in the range of 196 to 197 °C. On to `Nc1nc2ccc(C(O)C(COc3ccccc3)N3CCC(Cc4ccccc4)CC3)cc2s1` (configuration not stated), for which the melting point lay within 210 to 214 °C. To `O=C1Nc2ccc(F)cc2OC1CCO` (configuration not stated) belongs 136 to 138 °C; to `CCOC(=O)C1CCN(c2nc(COc3ccc(CCl)cc3OC)c(C)s2)CC1`, 98 to 99 °C; to `Cc1cc2c(cc1N)OC(=O)C2C` (configuration not stated), 123 to 124 °C. In the case of `COC(=O)c1cc(CS(=O)c2ccccc2)cnc1C1=NC(C)(C(C)C)C(=O)N1` (configuration not stated), the melting point fell in the range of 132 to 136 °C. The molecule `CNC(=O)Nc1nccc(Oc2ccc3c(C(=O)Nc4ccc(F)c(C(F)(F)F)c4)cccc3c2)n1` gave a melting point of 233 to 234 °C.

As to `COC(=O)C12OCC34C(CC5C(C)=C(O)C(=O)CC5(C)C3C(O)C1O)OC(=O)C(OC(=O)C=C(C)C(C)C)C24` (configuration not stated), the melting point is 220 to 223 °C. Molecule `COc1cc(OC)c(/C=C2/C(=O)NC(=O)/C2=C/c2ccccc2)c(OC)c1` showed a melting point of 246 to 248 °C. As for `CC(=O)c1ccc(-c2ccccc2F)cc1`, the figure is 84.5 to 86.5 °C; as for `CN(C)C(=O)c1nc2n(n1)-c1ccccc1N(c1ccccc1)C2`, 150 to 165 °C. Turning to `CCN1CC2CCCC2C1CNC(=O)c1cc(S(N)(=O)=O)ccc1OC` (configuration not stated), the melting point stood at 232 °C. As for `Cc1ccn(-c2ccc(C(=O)N3Cc4cccn4Cc4ccccc43)c(Cl)n2)n1`, the figure is 171 to 172 °C. `O=C(Nc1ccc(Cl)c(C(F)(F)F)c1)Nc1ccc(Cl)cc1-c1nnn[nH]1` displayed a melting point of 245 to 247 °C.

The molecule `CCCCN1CC(=O)C(C(=O)OCC)C1=O` (configuration not stated) returned a melting point of 121 to 123 °C. With `N#Cc1c(C#N)n(-c2ccc(Cl)cc2)c(=O)n1Cc1ccccc1`, the melting point was in the range of 192 to 194 °C.

`COc1cc2c(cc1Cl)NC(=O)C2=NNc1ccc(S(N)(=O)=O)cc1` displayed a melting point of over 250 °C.

The molecule `CCC(=O)c1c(C(C)C)nn2ccccc12` returned a melting point of 41 to 42 °C. Turning to `O=C(O)Cn1c(=O)c2cc(Cl)ccc2n(Cc2ccc(F)cc2)c1=O`, the melting point is 211 to 212 °C. On to `O=Cc1c2cccc(Cl)c2cc2c(Cl)cccc12`, for which the melting point was in the range of 218 to 220 °C. `CCCCN1CCC(CNC(=O)c2cc(Cl)cc3c2OCCO3)C(O)C1` (configuration not stated): the melting point worked out at 112 °C. With `CCOCc1nc2c(N)nc3cc(O)ccc3c2n1CC(C)(C)NS(C)(=O)=O`, the melting point was in the range of 255 to 256 °C. As for `Cc1ncc(CO)n1-c1ccc([N+](=O)[O-])cc1C(=O)c1ccccc1F`, the figure is 188 to 192 °C; as for `C[C@H](NC(=O)OCc1ccccc1)C(=O)N1CCC[C@H]1C(=O)Nc1ccccc1`, 138 to 139 °C. As for `N#Cc1c(F)ccc(F)c1N`, the figure is 90 to 92 °C; as for `CCCCCC12CCC(c3ccc(C#N)c(F)c3)(CC1)CC2`, 63 °C.

Consider `CC(=O)OC1CSC(Oc2cccnc2-c2cccs2)C(OC(C)=O)C1OC(C)=O` (configuration not stated), for which the melting point turned out to be 166 °C.

As for `COc1cc(C(C)C)c2c(c1)S(=O)(=O)N(COc1cc(C(F)(F)F)nn1-c1ccccn1)C2=O`, the melting point was 132 to 133 °C. To `CCCC=Cc1c(C(C)C)nc(C(C)C)c(CO)c1-c1cccc(Cl)c1` belongs 101 to 104 °C; to `c1cc(CN2CCCCC2)cc(OCCNc2nc3ccccc3s2)c1`, 141 to 142 °C. Take `CC(C)CN1C(=O)N(C)C2(NC(=O)NC2=O)c2ccccc21` (configuration not stated): the melting point was found to be 270 °C. In turn, `CC1=C(N2CCN(C(=O)Nc3ccc(Cl)cc3)CC2)C(=O)c2ccccc2C1=O` yielded a melting point of 190 to 192 °C. Molecule `CSCC(C)OC(=O)C(=C1NCCCS1)[N+](=O)[O-]` (configuration not stated) displayed a melting point of 58 to 60 °C. Molecule `Cc1ccc(C)n1-c1cccc(C(=O)O)c1` displayed a melting point of 148 to 150 °C. To `COc1ccccc1Oc1c(NS(=O)(=O)c2ccc(C(C)(C)C)cc2)nc(SC)nc1OCCO` belongs 139 to 140 °C. `NS(=O)(=O)c1cccc(-c2cccc(-c3nc(-c4ccc(C(F)(F)F)nc4)cc(C(F)(F)F)n3)c2)c1` gave a melting point of 211 °C. To `COc1ccc2cc([C@H](C)C(=O)OCC(C)(CO)CO)ccc2c1` belongs 105 °C. For the molecule `C=Cn1cc(C(=O)OCC)c(=O)c2c(C)c(F)c(F)c(F)c21`, the melting point lay in the range of 134 to 136 °C. `Clc1ccc2c(c1)C(c1ccccc1Cl)=NCc1c[nH]cc1-2`: the melting point fell in the range of 204 to 206 °C.

`Cc1cccc2oc(Nc3ccc(C(=O)O)cc3)nc12`: the melting point is 327 to 329 °C. The molecule `CNCC(O)c1cc(OC)c(O)c(OC)c1` (configuration not stated) returned a melting point of 175 °C. `NC(=O)CC[C@H](NC(=O)CCc1ccc(OCc2ccccc2)cc1OCc1ccccc1)C(=O)N1CCN(Cc2ccccc2)CC1` showed a melting point of 145 to 147 °C. As for `COc1ccc(S(=O)(=O)C2(C(=O)O)CCN(CC=C(C)C)CC2)cc1`, the figure is 142 to 145 °C. `CC(=O)NCc1ccc(CN2CCN(c3ncc([N+](=O)[O-])s3)CC2)cc1` showed a melting point of 151 to 152 °C. Turning to `Cc1cc(-c2cn[nH]c2N)ccn1`, the melting point came to 230 °C. `CC1(C)COP(=O)(Cc2ccc([N+](=O)[O-])cc2)OC1` showed a melting point of 176 to 177 °C. With `CNC1(C)CN(c2nc3c(cc2F)c(=O)c(C(=O)O)cn3C(C)(C)C)C1`, the melting point is over 300 °C. In the case of `Cc1cc(C2(C(F)(F)F)CC(c3ccc(F)cc3)=NO2)ccc1NC(=O)c1cccc(N)c1C(=O)NC(C)C` (configuration not stated), the melting point was in the range of 122 to 124 °C. In turn, `COc1cccc2c1OC(COS(=O)(=O)c1ccc(C)cc1)C2` (configuration not stated) had a melting point of 98 to 103 °C.

Take `CCN(CC)C(=O)/C=C/c1ccc(Cn2c(-c3ccc(O)cc3)c(C)c3cc(O)ccc32)cc1`: the melting point was 160 to 165 °C. As for `CC1=Nc2ccc(C)cc2C(O)(c2ccccc2)N1N` (configuration not stated), the figure is 192 to 196 °C; as for `CCN(CC)CCN1C(=O)C(C)(C)N=C(c2ccccc2Cl)c2cc([N+](=O)[O-])ccc21`, 70 °C. In turn, `CC(C)c1nsc(N=C(F)N(C)C)c1C#N` showed a melting point of 100 to 102 °C.

As to `CS(=O)(=O)c1ccc(Oc2cc(OC3CCOCC3)c3[nH]c(C4=NCC(CCO)S4)cc3c2)nc1` (configuration not stated), the melting point is 165 to 166 °C. `O=C1CN2C(=O)N(c3cc(Cl)cc(Cl)c3)C(=O)C2(Cc2ccc(Br)cc2)C1` (configuration not stated) returned a melting point of 85.4 °C. `C=C(C)c1ccc(C2COc3c(C)c(C)c(NC(=O)CC(C)(C)C)c(C)c32)cc1OC` (configuration not stated) displayed a melting point of 186 to 187 °C.

`O=C(O)c1cc(-c2ccnc(Nc3cccc(C(F)(F)F)c3)n2)ccn1` had a melting point of 241 to 245 °C.

Take `O=C(O)C1CCC(OCc2ccccc2)CC1` (configuration not stated): the melting point lay in the range of 55 to 64 °C. Consider `Cc1nn(-c2ccc(C(F)(F)F)cn2)cc1COc1cc(/C=C/C(=O)O)n(C)n1`, for which the melting point lay within 208 to 209 °C.
